The values below come from paper PMC8550792, “Evolution of kinase polypharmacology across HSP90 drug discovery” (Cell Chemical Biology, 2021).

The structures appear in SMILES notation. Read-outs that look alike come from different tables or passages of the source.

Holding throughout (assay): biochemical
Common to all, as to type: biochemical

For assay [1], the target named is T1, 382 unique human kinases (Homo sapiens, UniProt P10721).
T1 construct: purchased Reaction Biology (HotSpot contract assay)
T1 sequence (P10721 26-976): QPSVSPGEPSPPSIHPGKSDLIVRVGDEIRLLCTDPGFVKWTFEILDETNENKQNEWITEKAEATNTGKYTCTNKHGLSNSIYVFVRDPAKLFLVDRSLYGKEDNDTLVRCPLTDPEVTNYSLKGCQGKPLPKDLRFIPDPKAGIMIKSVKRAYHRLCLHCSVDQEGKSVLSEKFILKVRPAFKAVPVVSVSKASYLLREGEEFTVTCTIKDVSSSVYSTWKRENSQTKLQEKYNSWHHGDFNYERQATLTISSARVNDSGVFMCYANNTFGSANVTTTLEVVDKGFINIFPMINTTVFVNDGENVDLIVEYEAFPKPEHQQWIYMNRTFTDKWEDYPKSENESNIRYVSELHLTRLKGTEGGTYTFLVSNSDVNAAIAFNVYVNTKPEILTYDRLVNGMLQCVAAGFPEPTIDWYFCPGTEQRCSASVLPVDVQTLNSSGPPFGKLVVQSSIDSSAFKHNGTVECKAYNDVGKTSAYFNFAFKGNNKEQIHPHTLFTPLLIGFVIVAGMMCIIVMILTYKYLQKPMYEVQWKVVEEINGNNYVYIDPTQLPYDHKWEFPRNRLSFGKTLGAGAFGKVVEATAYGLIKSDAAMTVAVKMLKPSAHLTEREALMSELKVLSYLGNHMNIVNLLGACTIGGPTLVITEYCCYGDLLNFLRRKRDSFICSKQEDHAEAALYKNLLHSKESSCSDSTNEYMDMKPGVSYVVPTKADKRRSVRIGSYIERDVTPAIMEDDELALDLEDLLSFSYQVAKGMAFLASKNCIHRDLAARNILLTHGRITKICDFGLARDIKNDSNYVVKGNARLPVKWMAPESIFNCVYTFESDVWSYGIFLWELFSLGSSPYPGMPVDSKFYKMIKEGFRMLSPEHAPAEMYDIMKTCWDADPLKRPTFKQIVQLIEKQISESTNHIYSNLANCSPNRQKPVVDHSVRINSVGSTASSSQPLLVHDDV
The conditions noted are these: c-Kit, 10 uM; for remaining activity at 10 µM: read-out: % Enzyme Activity (relative to DMSO controls).

Assay [2] deals with T2, 382 unique human kinases (Homo sapiens, UniProt O15264).
T2 construct: purchased Reaction Biology (HotSpot contract assay)
T2 sequence (O15264 1-365): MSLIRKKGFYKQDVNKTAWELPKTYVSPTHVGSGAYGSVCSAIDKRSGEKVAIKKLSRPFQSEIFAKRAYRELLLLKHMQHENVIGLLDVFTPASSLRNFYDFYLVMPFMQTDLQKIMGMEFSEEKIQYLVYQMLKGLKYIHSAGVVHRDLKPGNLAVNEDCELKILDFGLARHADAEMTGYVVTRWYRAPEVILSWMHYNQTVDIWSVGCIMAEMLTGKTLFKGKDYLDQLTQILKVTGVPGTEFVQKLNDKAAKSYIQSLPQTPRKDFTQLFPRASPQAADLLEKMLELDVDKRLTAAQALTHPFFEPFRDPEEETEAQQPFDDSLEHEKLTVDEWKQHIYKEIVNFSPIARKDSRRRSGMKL
To be noted: P38d/MAPK13, 10 uM; for remaining activity at 10 µM: read-out: % Enzyme Activity (relative to DMSO controls).

Assay [3] deals with T3, 382 unique human kinases (Homo sapiens, UniProt P10398).
T3 construct: purchased Reaction Biology (HotSpot contract assay)
T3 sequence (P10398 1-606): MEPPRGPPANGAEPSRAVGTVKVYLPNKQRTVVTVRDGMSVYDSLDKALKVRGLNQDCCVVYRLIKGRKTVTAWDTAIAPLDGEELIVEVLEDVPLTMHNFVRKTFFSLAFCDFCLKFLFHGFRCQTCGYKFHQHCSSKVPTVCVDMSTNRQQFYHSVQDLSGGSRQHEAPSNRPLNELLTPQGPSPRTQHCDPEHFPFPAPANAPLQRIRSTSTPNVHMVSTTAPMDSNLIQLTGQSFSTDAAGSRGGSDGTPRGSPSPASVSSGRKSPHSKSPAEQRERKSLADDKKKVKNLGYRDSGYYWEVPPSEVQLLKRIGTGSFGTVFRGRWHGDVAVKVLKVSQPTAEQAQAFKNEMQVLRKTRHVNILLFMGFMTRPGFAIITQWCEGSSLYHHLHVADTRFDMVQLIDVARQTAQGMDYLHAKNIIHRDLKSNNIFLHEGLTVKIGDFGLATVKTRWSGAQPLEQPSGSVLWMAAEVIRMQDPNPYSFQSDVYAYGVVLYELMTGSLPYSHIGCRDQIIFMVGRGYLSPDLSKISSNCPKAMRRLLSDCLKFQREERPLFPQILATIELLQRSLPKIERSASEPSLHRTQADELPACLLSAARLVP
The conditions noted are these: compound at 10 uM, duplicate values.

Assay [4] has as its target T4, 382 unique human kinases (Homo sapiens, UniProt Q16566).
T4 construct: purchased Reaction Biology (HotSpot contract assay)
T4 sequence (Q16566 1-473): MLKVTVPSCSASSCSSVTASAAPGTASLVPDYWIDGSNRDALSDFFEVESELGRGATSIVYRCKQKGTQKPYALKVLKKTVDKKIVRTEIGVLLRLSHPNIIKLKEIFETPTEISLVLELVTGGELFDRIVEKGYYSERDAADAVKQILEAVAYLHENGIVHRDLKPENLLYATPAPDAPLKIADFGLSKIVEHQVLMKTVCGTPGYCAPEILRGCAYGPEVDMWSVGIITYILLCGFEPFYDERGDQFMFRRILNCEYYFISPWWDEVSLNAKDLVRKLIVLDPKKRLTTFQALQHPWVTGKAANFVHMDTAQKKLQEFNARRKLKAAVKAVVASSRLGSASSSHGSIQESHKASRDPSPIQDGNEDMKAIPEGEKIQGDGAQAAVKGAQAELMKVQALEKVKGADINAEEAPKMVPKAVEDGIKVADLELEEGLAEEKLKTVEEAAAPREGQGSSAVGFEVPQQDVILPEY
To be noted: kinase CAMK4, compound 10 uM; for remaining activity at 10 µM: read-out: % Enzyme Activity (relative to DMSO controls).

Assay [5] deals with T5, 382 unique human kinases (Homo sapiens, UniProt P10721, K642E).
T5 construct: purchased Reaction Biology (HotSpot contract assay)
T5 sequence (P10721 26-976 K642E): as the sequence (P10721 26-976) above, with K617E counted along it
To be noted: kinase c-Kit (K642E), compound 10 uM; for remaining activity at 10 µM: read-out: % Enzyme Activity (relative to DMSO controls).

The target in assay [6] is T6, 382 unique human kinases (Homo sapiens, UniProt P21802, K659N).
T6 construct: purchased Reaction Biology (HotSpot contract assay)
T6 sequence (P21802 22-821 K659N): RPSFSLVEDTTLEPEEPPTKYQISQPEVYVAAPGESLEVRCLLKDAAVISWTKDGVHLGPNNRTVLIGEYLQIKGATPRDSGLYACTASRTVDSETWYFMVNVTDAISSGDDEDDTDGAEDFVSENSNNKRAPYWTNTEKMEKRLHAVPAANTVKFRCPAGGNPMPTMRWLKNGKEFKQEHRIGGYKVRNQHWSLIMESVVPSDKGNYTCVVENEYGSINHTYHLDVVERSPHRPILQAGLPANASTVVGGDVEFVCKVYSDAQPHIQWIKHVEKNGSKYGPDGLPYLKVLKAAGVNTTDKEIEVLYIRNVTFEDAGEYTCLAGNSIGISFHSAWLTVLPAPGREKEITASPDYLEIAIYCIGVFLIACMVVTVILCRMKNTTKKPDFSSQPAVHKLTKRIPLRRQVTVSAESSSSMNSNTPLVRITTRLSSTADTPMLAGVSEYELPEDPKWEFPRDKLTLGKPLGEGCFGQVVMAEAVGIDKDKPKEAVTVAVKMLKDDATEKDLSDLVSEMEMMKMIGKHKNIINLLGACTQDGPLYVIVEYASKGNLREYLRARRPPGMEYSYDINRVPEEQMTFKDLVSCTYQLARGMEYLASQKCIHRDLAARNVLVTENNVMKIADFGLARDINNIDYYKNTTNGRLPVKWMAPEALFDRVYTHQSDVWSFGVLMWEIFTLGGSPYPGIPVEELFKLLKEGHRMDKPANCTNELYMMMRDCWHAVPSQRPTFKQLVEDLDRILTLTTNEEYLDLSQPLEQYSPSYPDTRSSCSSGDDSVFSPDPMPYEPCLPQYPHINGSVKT
The conditions noted are these: FGFR2 (K659N), 10 uM; for remaining activity at 10 µM: read-out: % Enzyme Activity (relative to DMSO controls).

Assay [7] addresses T7, 382 unique human kinases (Homo sapiens, UniProt O96013).
T7 construct: purchased Reaction Biology (HotSpot contract assay)
The conditions noted are these: PAK4, compound at 10 uM, duplicate values; for remaining activity at 10 µM: read-out: % Enzyme Activity (relative to DMSO controls).

In assay [8] the target is T8, 382 unique human kinases (Homo sapiens, UniProt Q14680).
T8 construct: purchased Reaction Biology (HotSpot contract assay)
T8 sequence (Q14680 whole entry): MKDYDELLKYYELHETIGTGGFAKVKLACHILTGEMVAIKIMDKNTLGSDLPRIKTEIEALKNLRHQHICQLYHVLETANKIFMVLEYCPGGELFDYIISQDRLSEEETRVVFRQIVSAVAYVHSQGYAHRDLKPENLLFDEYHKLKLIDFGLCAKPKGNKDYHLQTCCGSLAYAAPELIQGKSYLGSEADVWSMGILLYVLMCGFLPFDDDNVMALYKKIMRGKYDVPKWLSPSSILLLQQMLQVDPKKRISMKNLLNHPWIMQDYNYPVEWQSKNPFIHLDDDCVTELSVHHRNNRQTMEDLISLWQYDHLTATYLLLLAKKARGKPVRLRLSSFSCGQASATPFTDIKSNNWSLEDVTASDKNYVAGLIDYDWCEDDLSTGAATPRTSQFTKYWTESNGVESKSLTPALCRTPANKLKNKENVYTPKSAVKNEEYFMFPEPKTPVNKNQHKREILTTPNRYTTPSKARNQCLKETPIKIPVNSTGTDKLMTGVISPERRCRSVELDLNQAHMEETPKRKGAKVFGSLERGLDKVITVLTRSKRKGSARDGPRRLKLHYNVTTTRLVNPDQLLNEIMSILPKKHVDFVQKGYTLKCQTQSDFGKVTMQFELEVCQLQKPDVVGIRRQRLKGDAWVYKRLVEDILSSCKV
The conditions noted are these: MELK, [ATP] 50 µM, compound 10 uM; for remaining activity at 10 µM: read-out: % Enzyme Activity (relative to DMSO controls).

The target in assay [9] is T9, 382 unique human kinases (Homo sapiens, UniProt Q16832, N456S).
T9 construct: purchased Reaction Biology (HotSpot contract assay)
T9 sequence (Q16832 22-855 N456S): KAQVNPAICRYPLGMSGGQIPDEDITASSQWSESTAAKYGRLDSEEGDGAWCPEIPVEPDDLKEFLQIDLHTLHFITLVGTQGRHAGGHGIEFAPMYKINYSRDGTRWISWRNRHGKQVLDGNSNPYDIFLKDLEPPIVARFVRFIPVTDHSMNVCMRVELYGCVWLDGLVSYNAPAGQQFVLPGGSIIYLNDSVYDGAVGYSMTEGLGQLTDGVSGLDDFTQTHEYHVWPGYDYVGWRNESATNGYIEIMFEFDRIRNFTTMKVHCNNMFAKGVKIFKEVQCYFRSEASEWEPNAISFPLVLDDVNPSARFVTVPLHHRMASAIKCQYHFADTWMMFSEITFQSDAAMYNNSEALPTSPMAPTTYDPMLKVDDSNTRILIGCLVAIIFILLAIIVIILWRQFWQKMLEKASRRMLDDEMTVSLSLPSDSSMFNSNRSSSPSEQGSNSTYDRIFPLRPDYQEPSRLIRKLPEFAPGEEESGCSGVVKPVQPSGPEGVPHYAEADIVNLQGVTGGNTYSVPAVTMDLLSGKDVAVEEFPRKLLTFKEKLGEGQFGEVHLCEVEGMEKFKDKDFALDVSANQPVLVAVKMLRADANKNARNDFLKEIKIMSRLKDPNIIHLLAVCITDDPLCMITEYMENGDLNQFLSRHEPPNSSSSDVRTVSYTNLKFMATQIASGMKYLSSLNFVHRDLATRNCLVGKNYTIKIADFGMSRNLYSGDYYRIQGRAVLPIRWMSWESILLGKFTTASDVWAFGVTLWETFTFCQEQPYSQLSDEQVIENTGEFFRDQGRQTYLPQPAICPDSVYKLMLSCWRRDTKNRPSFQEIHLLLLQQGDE
To be noted: DDR2 (N456S), [ATP] 2.5 µM, compound 10 uM; for remaining activity at 10 µM: read-out: % Enzyme Activity (relative to DMSO controls).

T7 sequence (O96013 whole entry): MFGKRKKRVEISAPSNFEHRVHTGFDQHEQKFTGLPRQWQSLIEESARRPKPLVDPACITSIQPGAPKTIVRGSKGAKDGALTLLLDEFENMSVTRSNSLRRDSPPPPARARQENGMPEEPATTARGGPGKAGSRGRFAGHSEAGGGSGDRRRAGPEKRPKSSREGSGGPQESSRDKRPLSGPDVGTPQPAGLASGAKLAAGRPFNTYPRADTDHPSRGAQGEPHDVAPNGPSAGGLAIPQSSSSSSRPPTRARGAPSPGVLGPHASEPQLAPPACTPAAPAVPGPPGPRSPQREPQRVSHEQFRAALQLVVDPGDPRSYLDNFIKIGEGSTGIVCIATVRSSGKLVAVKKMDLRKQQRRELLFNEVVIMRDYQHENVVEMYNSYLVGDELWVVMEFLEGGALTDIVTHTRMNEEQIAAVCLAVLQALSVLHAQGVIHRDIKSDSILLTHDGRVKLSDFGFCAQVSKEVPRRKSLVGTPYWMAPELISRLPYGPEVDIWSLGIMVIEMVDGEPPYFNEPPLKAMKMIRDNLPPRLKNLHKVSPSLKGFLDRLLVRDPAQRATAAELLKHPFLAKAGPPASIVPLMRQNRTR

Consider `CC(C)c1cc(-c2n[nH]c(=O)n2-c2ccc3c(ccn3C)c2)c(O)cc1O` [Ganetespib (STA9090)], for which the remaining activity at 10 µM at 382 unique human kinases [1] came out at 80.8%; on 382 unique human kinases [2] it was 83.5%; at 382 unique human kinases [3] (read-out: % Enzyme Activity (relative to DMSO controls), ARAF) it was 158%; on 382 unique human kinases [4] it was 91%; on 382 unique human kinases [5], 85.5%; at 382 unique human kinases [6], 70.6%. Besides, the remaining activity at 10 µM on 382 unique human kinases [7] was 129%.

`CC(C)c1cc(-c2n[nH]c(=O)n2-c2ccc3c(ccn3C)c2)c(O)cc1O` [Ganetespib]: the remaining activity at 10 µM stood at 44.5% on 382 unique human kinases [8] and 2.65% at 382 unique human kinases [9].

Consider `CCNC(=O)c1noc(-c2cc(C(C)C)c(O)cc2O)c1-c1ccc(CN2CCOCC2)cc1` [Luminespib (AUY-922)], for which the “% Enzyme Activity (relative to DMSO controls)” value was determined as 72.90% on 382 unique human kinases [1]; 86.84% on 382 unique human kinases [2]; 107.23% at 382 unique human kinases [3] (ARAF); 90.30% on 382 unique human kinases [4]; 81.47% at 382 unique human kinases [5]; 101.12% at 382 unique human kinases [6]. Also, the “% Enzyme Activity (relative to DMSO controls)” value at 382 unique human kinases [7] was determined as 118.57%. In addition, the remaining activity at 10 µM on 382 unique human kinases [1] turned out to be 72.9%; at 382 unique human kinases [2], 86.8%; on 382 unique human kinases [3] (ARAF, read-out: % Enzyme Activity (relative to DMSO controls)) it was 107%; at 382 unique human kinases [4], 93.7%; at 382 unique human kinases [5] it was 82.3%; on 382 unique human kinases [6], 102%. Further, the remaining activity at 10 µM at 382 unique human kinases [7] worked out at 119%.

Take `CCNC(=O)c1noc(-c2cc(C(C)C)c(O)cc2O)c1-c1ccc(CN2CCOCC2)cc1` [Luminespib]: at 382 unique human kinases [8], the “% Enzyme Activity (relative to DMSO controls)” value stood at 56.86% and the remaining activity at 10 µM stood at 56.9%. At 382 unique human kinases [9], the “% Enzyme Activity (relative to DMSO controls)” value was 85.24% and the remaining activity at 10 µM worked out at 90.4%.
